From the NIST ThermoML archive (doi:10.1016/j.jct.2013.11.013)
Where “and” joins values, the source holds several entries; their conditions need not be identical. Equal entries are not always repeated.

What was measured:
[1] = molar enthalpy of vaporization or sublimation; conditions: 298.15 K; Crystal; Static calorimetry
[2] = Molar enthalpy of transition or fusion; conditions: Crystal; DSC
[3] = Crystal; for vapor or sublimation pressure: Calculated from knudsen effusion weight loss; for Normal melting temperature: DTA

c1ccc2c(c1)Nc1ccccc1O2 [phenoxazine]
Conditions | Molar enthalpy of transition or fusion [kcal/mol] | Normal melting temperature [°C] | molar enthalpy [kcal/mol]
[1] | – | – | 24.26
[2] | 5.14 | – | –
[3] | – | 157.58 | –

[3]
Conditions | vapor or sublimation pressure
333.18 K | 9.52e-05 kPa and 9.41e-05 kPa and 9.09e-05 kPa
335.2 K | 0.0001178 kPa and 0.000118 kPa and 0.0001119 kPa
337.1 K | 0.0001463 kPa and 0.000143 kPa and 0.0001421 kPa
339.17 K | 0.0001789 kPa and 0.0001744 kPa and 0.0001819 kPa
341.24 K | 0.0002193 kPa and 0.0002141 kPa and 0.0002236 kPa
343.14 K | 0.0002773 kPa and 0.0002712 kPa and 0.0002629 kPa
345.17 K | 0.0003274 kPa and 0.0003216 kPa and 0.0003308 kPa
347.19 K | 0.0004072 kPa and 0.0003893 kPa and 0.0004049 kPa
349.11 K | 0.000488 kPa and 0.0004919 kPa and 0.0004776 kPa
351.17 K | 0.000606 kPa and 0.0005906 kPa and 0.0006233 kPa
353.17 K | 0.0007525 kPa and 0.000734 kPa and 0.0007159 kPa
355.1 K | 0.0008813 kPa and 0.0008967 kPa and 0.0008889 kPa
357.1 K | 0.001069 kPa and 0.001075 kPa and 0.001077 kPa

c1ccc2c(c1)Nc1ccccc1S2 [10H-phenothiazine]
Conditions | Molar enthalpy of transition or fusion [kcal/mol] | Normal melting temperature [°C] | molar enthalpy [kcal/mol]
[1] | – | – | 24.69
[2] | 6.43 | – | –
[3] | – | 185.70 | –

[3]
Conditions | vapor or sublimation pressure
357.16 K | 0.0001222 kPa and 0.000127 kPa and 0.0001245 kPa
359.11 K | 0.000157 kPa and 0.0001593 kPa and 0.000151 kPa
361.09 K | 0.0001862 kPa and 0.0001894 kPa
363.16 K | 0.0002302 kPa and 0.0002289 kPa and 0.0002278 kPa
365.1 K | 0.0002854 kPa and 0.0002713 kPa and 0.0002851 kPa
367.08 K | 0.0003408 kPa and 0.0003366 kPa and 0.0003279 kPa
369.16 K | 0.0004206 kPa and 0.0004159 kPa and 0.0004168 kPa
371.1 K | 0.0005122 kPa and 0.000496 kPa and 0.000513 kPa
373.09 K | 0.0006118 kPa and 0.0005996 kPa
375.14 K | 0.0007352 kPa and 0.0007169 kPa and 0.0007525 kPa
377.11 K | 0.0008924 kPa and 0.0008545 kPa and 0.0008994 kPa
379.1 K | 0.0009984 kPa and 0.0009874 kPa and 0.001053 kPa
